Reference: patent US4119729A, “Alkylsulfonylphenoxypropanolamine therapeutic process” (Mead Johnson & Company, priority 1977, dated 1978)
Where two headings read alike, the source gives them in different places.

Columns and labels:
[1] = acute toxicity (LD50) in the rat; details: in vivo, po
β-Adrenergic Receptor [2] = test: guinea pig tracheal preparation, β-adrenergic receptor antagonist molar potency; details: molar potency relative to propranolol = 1
Text: (§1) Cardioselective β1 -adrenergic blocking activity of the compounds of the present invention can be assessed in standard in vitro pharmacological test systems such as the spontaneously beating rabbit atrial preparation and the guinea pig tracheal preparation.
(§2) A Comparison of β-Adrenergic Receptor Antagonist Molar
(§3) Potencies Determined in Rabbit Atrial and Guinea
(§4) Pig Tracheal Preparations

[3] = acute toxicity (LD50) in the mouse; details: in vivo
[4] = tested on: isoproterenol-induced increased contractile force and heart rate; test: inhibition of isoproterenol-induced increased contractile force and heart rate in the anesthetized dog; format: in vivo; details: Canis lupus familiaris, intravenous, isoproterenol challenge 0.2 mcg./kg. intravenous
Text: A preferred compound of this invention, 1-(isopropylamino)-3-[4-(methylsulfonyl)-3-tolyloxy]-2-propanol hydrochloride, inhibits increased contractile force and heart rate in the anesthetized dog induced by a standard challenge dose of 0.2 mcg./kg.

β-Adrenergic Receptor [5] = test: spontaneously beating rabbit atrial preparation, β-adrenergic receptor antagonist molar potency
Text: as §1, §2, §3, §4

[6] = tested on: spontaneous hypertensive rat; test: blood pressure lowering in the spontaneous hypertensive rat; format: in vivo; details: oral dose of 100 mg./kg. body weight
Description: For the purpose of treating hypertension in a mammal, the antihypertensive process of the instant invention is carried out by systemically administering to a mammal in need of such treatment an antihypertensive effective amount of a compound selected from the group characterized by Formula I or preferably by Formula X or a pharmaceutically acceptable non-toxic acid addition salt thereof. By systemic administration, it is intended to include both oral and parenteral routes. Examples of parenteral administration are intramuscular, intravenous, intraperitoneal,rectal, and subcutaneous administration. The dosage will vary with the form of administration and the particular compound chosen. However, from about 0.3 mg. per kg. body weight to 100 mg. per kg. body weight of a compound characterized by Formula I administered in effective single or multiple dosage units is generally satisfactory. In accordance with conventional clinical practice, the antihypertensive agent is administered at a dosage substantially less than the dose of the compound thought to be effective. Thereafter, the dosage is increased by small increments until the optimum antihypertensive effect under the circumstances is reached. At effective antihypertensive dosage levels, the compounds of this invention are substantially free of harmful or deleterious side effects. […]

Structure (SMILES)	LD50 [1] [mg/kg]	Potency Ratio Trachea (β-Adrenergic Receptor [2])	LD50 ([3]; ip, read-out: intraperitoneal LD50) [mg/kg]	LD50 ([3]; po, read-out: oral LD50) [mg/kg]	ED50 ([4]; read-out: ED50, inhibition of increased contractile force) [mg/kg]	ED50 ([4]; read-out: ED50, inhibition of increased heart rate) [mg/kg]	Potency Ratio Atria (β-Adrenergic Receptor [5]; molar potency relative to propranolol = 1, rabbit atrial preparation)	Cardioselectivity Ratio: Atria/Trachea (β-Adrenergic Receptor [5]; ratio of potency ratios, rabbit atria / guinea pig trachea)	lowered blood pressure [6]
Cc1cc(OCC(O)CNC(C)C)ccc1S(C)(=O)=O.Cl (stereo not drawn) [1-(ISOPROPYLAMINO)-3-[4-(METHYLSULFONYL)-m-TOLYLOXY]-2-PROPANOL HYDROCHLORIDE]	1790	0.01	339	1500	0.71	2.02	0.37	37	–
Cc1cc(OCC(O)CNC(C)COc2ccccc2)ccc1S(C)(=O)=O (stereo not drawn) [3-[4-(methylsulfonyl)-m-tolyloxy]-1-(1-phenoxy-2-propylamino)-2-propanol]	–	–	–	–	–	–	–	–	about 22.4 mm Hg
